Data: patent publication US11446342B2, “Composite probiotics and use thereof” (INFINITUS (CHINA) COMPANY LTD., priority 2019, dated 2022)

Key:
[1] = tested on: mice having high-fat diet induced metabolic syndrome; experiment: Liver glutathione (GSH) in high-fat diet-induced metabolic syndrome; assay type: in vivo, C57BL/6J mice; conditions: intragastric daily, high-fat feed; probiotics total 1.0×10^9 CFU/mL
Procedure: (§1) The experimental animals were 48 5-week old SPF grade C57BL/6 male mice, which were purchased from Shanghai Slack Laboratory Animal Center. The high-fat feed was purchased from Nantong Trophic Animal Feed High-tech Co., Ltd. The model group was fed with TP23300 high-fat feed, and the normal control group was fed with TP23302 control feed. After the mice were adaptively feed for 7 days, the experiment started. The animals were given free access to food and water, the temperature was 22±2° C., the humidity was 55±5%, and the illumination was alternately 12 h bright and dark.
(§2) Each group contains 6 mice. The feeding environmental temperature was 20-26° C., the humidity was 40%-70% and the padding was replaced twice a week. In the Bifidobacterium adolescentis CCFM8630, Lactobacillus reuteri CCFM8631, Lactobacillus rhamnosus CCFM1044 and Lactobacillus casei CCFM711 compounding group, the ratio of viable count of Bifidobacterium adolescentis CCFM8630, Lactobacillus reuteri CCFM8631, Lactobacillus rhamnosus CCFM1044 and Lactobacillus casei CCFM711 was 1:1:1:1. Each mouse was administered intragastrically each day with probiotics with a concentration of 1.0×10^9 CFU/mL, which was resuspended in 3% sucrose solution, and the volume by intragastric administration was 0.2 mL, i.e., the total amount of probiotics administered intragastrically to each mouse was 2×10^8 CFU each day. […]

[2] = tested on: mice having high-fat diet induced metabolic syndrome; experiment: Liver superoxide dismutase (SOD) in high-fat diet-induced metabolic syndrome; assay type: in vivo, C57BL/6J mice; conditions: intragastric daily, high-fat feed; probiotics total 1.0×10^9 CFU/mL
Procedure: as §1, §2

CN(CCOc1ccc(CC2SC(=O)NC2=O)cc1)c1ccccn1 (centres unmarked) [RH, rosiglitazone]
extent of increase of liver GSH level compared with the HF group [1]: 6.88 μmoL/g prot | extent of increase of liver SOD activity compared with the HF group [2]: 70.07 U/mg prot
